Measured values from patent publication US20160235727A1, “NOVEL PYRROLIDINE DERIVED BETA 3 ADRENERGIC RECEPTOR AGONISTS” (Merck Sharp & Dohme Corp., priority 2013, published 2016).

Target: T1, human β3-AR (Homo sapiens, UniProt P13945)
T1 construct: expressed in transfected cells; host or cells: CHO (Chinese hamster ovary) cells, stably transfected
Experiment: cAMP functional agonist assay (LANCE TR-FRET) in CHO cells expressing cloned human β3-AR
Format: cell-based
Details: for EC50: CHO cells stably expressing cloned human β3-adrenoceptor, cAMP release, read-out: Human β3-AR Agonism EC50; for Human β3-AR Agonist Activity (%): percent maximum activation relative to isoproterenol; for Fold drop in potency vs. 2-chloropyridine analog: EC50 of comparative example divided by EC50 of corresponding 2-chloropyridine compound

T1 sequence (P13945 whole entry): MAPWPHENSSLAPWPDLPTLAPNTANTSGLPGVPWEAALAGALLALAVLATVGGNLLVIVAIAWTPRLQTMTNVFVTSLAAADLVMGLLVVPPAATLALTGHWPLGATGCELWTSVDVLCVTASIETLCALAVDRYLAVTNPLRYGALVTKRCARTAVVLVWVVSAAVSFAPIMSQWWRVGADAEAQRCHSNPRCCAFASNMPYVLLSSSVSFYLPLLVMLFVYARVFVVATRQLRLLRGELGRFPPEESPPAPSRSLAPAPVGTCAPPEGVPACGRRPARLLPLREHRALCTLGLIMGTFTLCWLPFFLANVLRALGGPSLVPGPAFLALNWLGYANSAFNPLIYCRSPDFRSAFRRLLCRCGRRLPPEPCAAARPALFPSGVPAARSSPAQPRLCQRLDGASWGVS

SMILES | EC50 [nM] | Human β3-AR Agonist Activity (%) | Fold drop in potency vs. 2-chloropyridine analog [fold]
CN(Cc1cncc(-c2nnn[nH]2)c1)C(=O)c1ccc(C[C@@H]2CC[C@H]([C@H](O)c3ccc(Cl)nc3)N2)cc1 [Example 37-A, N-((5-(1H-tetrazol-5-yl)pyridin-3-yl)methyl)-4-(((2S,5R)-5-((R)-(6-chloropyridin-3-yl)(hydroxy)methyl)pyrrolidin-2-yl)methyl)-N-methylbenzamide] | 27 | 94 | –
CN(Cc1cc(C(F)(F)F)[nH]n1)C(=O)c1ccc(C[C@@H]2CC[C@H]([C@H](O)c3ccccc3)N2)cc1 [Example 10-B, 4-(((2S,5R)-5-((R)-hydroxy(phenyl)methyl)pyrrolidin-2-yl)methyl)-N-methyl-N-((5-(trifluoromethyl)-1H-pyrazol-3-yl)methyl)benzamide] | 5 | 110 | 3.2
CN(Cc1cccnc1F)C(=O)c1ccc(C[C@@H]2CC[C@H]([C@H](O)c3cccc(F)c3)N2)cc1 [Example 26-C, 4-(((2S,5R)-5-((R)-(3-fluorophenyl)(hydroxy)methyl)pyrrolidin-2-yl)methyl)-N-((2-fluoropyridin-3-yl)methyl)-N-methylbenzamide] | 143 | 98 | 4.1
COc1ccc([C@@H](O)[C@H]2CC[C@@H](Cc3ccc(C(=O)N(C)Cc4cccnc4)cc3)N2)cn1 [Example 21-P, 4-(((2S,5R)-5-((R)-hydroxy(6-methoxypyridin-3-yl)methyl)pyrrolidin-2-yl)methyl)-N-methyl-N-(pyridin-3-ylmethyl)benzamide] | 24 | 93 | 5.7
Cc1nnc(-c2cncc(CN(C)C(=O)c3ccc(C[C@@H]4CC[C@H]([C@H](O)c5ccccc5)N4)cc3)c2)o1 [Example 36-B, 4-(((2S,5R)-5-((R)-hydroxy(phenyl)methyl)pyrrolidin-2-yl)methyl)-N-methyl-N-((5-(5-methyl-1,3,4-oxadiazol-2-yl)pyridin-3-yl)methyl)benzamide] | 59 | 101 | 4.3
COc1c(CN(C)C(=O)c2ccc(C[C@@H]3CC[C@H]([C@H](O)c4ccc(Cl)nc4)N3)cc2)n[nH]c1C [Example 16-A, 4-(((2S,5R)-5-((R)-(6-chloropyridin-3-yl)(hydroxy)methyl)pyrrolidin-2-yl)methyl)-N-((4-methoxy-5-methyl-1H-pyrazol-3-yl)methyl)-N-methylbenzamide] | 2 | 102 | –
CN(Cc1n[nH]c2c1CCC2)C(=O)c1ccc(C[C@@H]2CC[C@H]([C@H](O)c3ccccc3)N2)cc1 [Example 13-B, 4-(((2S,5R)-5-((R)-hydroxy(phenyl)methyl)pyrrolidin-2-yl)methyl)-N-methyl-N-((1,4,5,6-tetrahydrocyclopenta[c]pyrazol-3-yl)methyl)benzamide] | 3 | 113 | 1.5
CCOc1cc(CN(C)C(=O)c2ccc(C[C@@H]3CC[C@H]([C@H](O)c4ccc(Cl)nc4)N3)cc2)[nH]n1 [Example 11-A, 4-(((2S,5R)-5-((R)-(6-chloropyridin-3-yl)(hydroxy)methyl)pyrrolidin-2-yl)methyl)-N-((5-ethoxy-1H-pyrazol-3-yl)methyl)-N-methylbenzamide] | 7 | 95 | –
